From patent publication US12448365B2, “Aryl aminopyrimidines as dual MerTK and TYRO3 inhibitors and methods thereof” (The University of North Carolina at Chapel Hill, priority 2019, dated 2025) come the findings set out here.

Read-outs that look alike come from different tables or passages of the source.

In one test the target is Mer (Homo sapiens (Human), UniProt Q12866). The experiment in a line: Microfluidic Capillary Electrophoresis (MCE) kinase activity assay, Mer. The test is classed as biochemical.
Mer, sequence (Q12866 21-999): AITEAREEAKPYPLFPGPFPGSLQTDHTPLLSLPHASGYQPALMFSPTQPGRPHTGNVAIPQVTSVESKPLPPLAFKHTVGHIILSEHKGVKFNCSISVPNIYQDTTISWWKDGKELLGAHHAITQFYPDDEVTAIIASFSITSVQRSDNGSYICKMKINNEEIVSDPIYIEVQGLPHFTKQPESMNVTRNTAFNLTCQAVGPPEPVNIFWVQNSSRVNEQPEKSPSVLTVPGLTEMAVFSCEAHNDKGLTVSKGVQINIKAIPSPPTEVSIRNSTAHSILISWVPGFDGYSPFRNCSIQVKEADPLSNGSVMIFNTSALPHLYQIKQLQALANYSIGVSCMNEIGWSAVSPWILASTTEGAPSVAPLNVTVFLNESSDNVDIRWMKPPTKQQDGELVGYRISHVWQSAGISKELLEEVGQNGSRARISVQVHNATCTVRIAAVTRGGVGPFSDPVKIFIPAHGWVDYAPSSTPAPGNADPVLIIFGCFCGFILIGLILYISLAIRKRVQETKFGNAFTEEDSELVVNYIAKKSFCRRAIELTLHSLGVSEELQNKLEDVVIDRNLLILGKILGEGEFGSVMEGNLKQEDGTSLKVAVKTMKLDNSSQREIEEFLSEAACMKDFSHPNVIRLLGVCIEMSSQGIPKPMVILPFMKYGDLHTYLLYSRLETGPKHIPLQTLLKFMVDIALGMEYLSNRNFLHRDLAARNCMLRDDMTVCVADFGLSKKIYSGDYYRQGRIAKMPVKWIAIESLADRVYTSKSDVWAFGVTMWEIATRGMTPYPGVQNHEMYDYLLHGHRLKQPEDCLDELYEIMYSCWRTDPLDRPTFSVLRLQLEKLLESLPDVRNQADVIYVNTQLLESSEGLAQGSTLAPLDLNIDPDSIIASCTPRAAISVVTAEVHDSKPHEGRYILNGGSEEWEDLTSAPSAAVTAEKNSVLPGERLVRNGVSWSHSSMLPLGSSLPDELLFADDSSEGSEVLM
In a further test the target is Tyro3 (Homo sapiens (Human), UniProt Q06418). The experiment in a line: Microfluidic Capillary Electrophoresis (MCE) kinase activity assay, Tyro3. It counts as biochemical.
Tyro3, sequence (Q06418 41-890): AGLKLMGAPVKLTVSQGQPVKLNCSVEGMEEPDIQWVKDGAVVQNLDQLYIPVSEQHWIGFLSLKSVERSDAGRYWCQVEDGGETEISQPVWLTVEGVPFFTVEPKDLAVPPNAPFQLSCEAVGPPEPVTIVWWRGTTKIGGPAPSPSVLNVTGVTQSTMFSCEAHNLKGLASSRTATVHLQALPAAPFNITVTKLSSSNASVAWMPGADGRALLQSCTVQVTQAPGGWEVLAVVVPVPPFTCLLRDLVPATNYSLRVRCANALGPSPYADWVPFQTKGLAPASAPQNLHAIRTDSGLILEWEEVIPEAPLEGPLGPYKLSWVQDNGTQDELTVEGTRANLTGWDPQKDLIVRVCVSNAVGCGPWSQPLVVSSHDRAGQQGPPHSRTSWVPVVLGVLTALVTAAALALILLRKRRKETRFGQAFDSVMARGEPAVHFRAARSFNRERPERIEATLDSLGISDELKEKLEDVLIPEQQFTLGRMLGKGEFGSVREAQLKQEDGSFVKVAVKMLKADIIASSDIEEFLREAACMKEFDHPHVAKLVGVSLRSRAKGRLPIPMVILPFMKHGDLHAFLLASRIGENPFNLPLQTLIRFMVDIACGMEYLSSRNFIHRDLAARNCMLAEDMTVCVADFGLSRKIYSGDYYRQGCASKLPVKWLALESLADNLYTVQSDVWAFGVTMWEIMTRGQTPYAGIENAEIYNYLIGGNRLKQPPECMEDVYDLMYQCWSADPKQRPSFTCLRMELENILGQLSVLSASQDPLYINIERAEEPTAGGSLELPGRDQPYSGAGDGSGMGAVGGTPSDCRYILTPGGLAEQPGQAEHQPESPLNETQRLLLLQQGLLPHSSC
Setting [1] is: MCE assay, Mer 2.0 nM, ATP 5.0 uM (at Km), 1.0 μM fluorescent substrate, 180 min incubation.
Where [2] appears, read: MCE assay, Tyro 10 nM, ATP 21 uM (at Km), 1.0 μM fluorescent substrate, 180 min incubation.

Consider `COc1cccc(Nc2ncc(C3CCN(C(=O)C4CCCC4)CC3)c(N[C@H]3CC[C@H](O)CC3)n2)c1` [Compound 1, cyclopentyl(4-(4-((trans-4-hydroxycyclohexyl)amino)-2-((3-methoxyphenyl)amino)pyrimidin-5-yl)piperidin-1-yl)methanone], for which the half-maximal inhibitory concentration (IC50) on Mer and against Tyro3 was 100 to 1000 nM throughout.

Take `COc1cc(Nc2ncc(C3CCN(C(=O)OC(C)(C)C)CC3)c(N[C@H]3CC[C@H](O)CC3)n2)ccn1` [Compound 2]: the IC50 against Mer and against Tyro3 was 10 to 100 nM in each case.

For the molecule `COc1cccc(Nc2ncc(C3CCN(CC4CCCC4)CC3)c(N[C@H]3CC[C@H](O)CC3)n2)c1` [Compound 4, trans-4-((5-(1-(cyclopentylmethyl)piperidin-4-yl)-2-((3-methoxyphenyl)amino)pyrimidin-4-yl)amino)cyclohexan-1-ol], the IC50 (usually the midpoint of a concentration-inhibition curve) is less than 10 nM against Mer (setting [1]) and 10 to 100 nM against Tyro3.

As for `COc1cc(Nc2ncc(C3CCN(CC4CCCC4)CC3)c(N[C@H]3CC[C@H](O)CC3)n2)ccn1` [Compound 5], the IC50 at Mer (setting [1]) is less than 10 nM; at Tyro3 it was 10 to 100 nM.

For the molecule `COc1cc(Nc2ncc(C3CCN(C)CC3)c(N[C@H]3CC[C@H](O)CC3)n2)ccn1` [Compound 6], the IC50 against Mer and against Tyro3 was 10 to 100 nM throughout.

Take `Cc1cc(Nc2ncc(C3CCNCC3)c(N[C@H]3CC[C@H](O)CC3)n2)ccn1` [Compound 8]: the IC50 against Mer and against Tyro3 was 10 to 100 nM each time.

Consider `O[C@H]1CC[C@H](Nc2nc(Nc3ccnc(Cl)c3)ncc2C2CCNCC2)CC1` [Compound 9], for which the IC50 against Mer and against Tyro3 was 10 to 100 nM in each case.

With `Cc1cc(Nc2ncc(C3CCNCC3)c(N[C@H]3CC[C@H](O)CC3)n2)cc(C)n1` [Compound 10], the IC50 was in the range of 1000 to 30000 nM at Mer and 10 to 100 nM on Tyro3.

In the case of `Cc1cc(Nc2ncc(C3CCN(C4CCCC4)CC3)c(N[C@H]3CC[C@H](O)CC3)n2)ccn1` [Compound 11, trans-4-((5-(1-cyclopentylpiperidin-4-yl)-2-((2-methylpyridin-4-yl)amino)pyrimidin-4-yl)amino)cyclohexan-1-ol], the IC50 was less than 10 nM against Mer (setting [1]) and 10 to 100 nM against Tyro3.

Turning to `O[C@H]1CC[C@H](Nc2nc(Nc3ccnc(Cl)c3)ncc2C2CCN(C3CCCC3)CC2)CC1` [Compound 12], the IC50 against Mer (setting [1]) and against Tyro3 (setting [2]) was less than 10 nM each time.

Turning to `O[C@H]1CC[C@H](Nc2nc(Nc3ccnc(C(F)(F)F)c3)ncc2C2CCN(C3CCCC3)CC2)CC1` [Compound 13], the IC50 was less than 10 nM on Mer and 10 to 100 nM against Tyro3.

For the molecule `NC(=O)c1cc(Nc2ncc(C3CCN(C4CCCC4)CC3)c(N[C@H]3CC[C@H](O)CC3)n2)ccn1` [Compound 14], the IC50 on Mer and against Tyro3 was 10 to 100 nM each time.

In the case of `Cc1cc(Nc2ncc(C3CCN(CC4CCCC4)CC3)c(N[C@H]3CC[C@H](O)CC3)n2)ccn1` [Compound 15], the IC50 against Mer (setting [1]) is less than 10 nM; against Tyro3 it was 10 to 100 nM.

`O[C@H]1CC[C@H](Nc2nc(Nc3ccnc(Cl)c3)ncc2C2CCN(CC3CCCC3)CC2)CC1` [Compound 16]: the IC50 against Mer (setting [1]) and against Tyro3 (setting [2]) was less than 10 nM each time.

With `O[C@H]1CC[C@H](Nc2nc(Nc3ccnc(C(F)(F)F)c3)ncc2C2CCN(CC3CCCC3)CC2)CC1` [Compound 17], the IC50 at Mer and against Tyro3 was 10 to 100 nM in each case.

Consider `CC(F)(F)c1cc(Nc2ncc(C3CCN(CC4CCCC4)CC3)c(N[C@H]3CC[C@H](O)CC3)n2)ccn1` [Compound 18], for which the IC50 on Mer (setting [1]) and against Tyro3 (setting [2]) was less than 10 nM each time.

Take `Cc1cc(Nc2ncc(C3CCN(CC4CCCC4)CC3)c(N[C@H]3CC[C@H](O)CC3)n2)cc(C)n1` [Compound 19]: the figures for the IC50 on Mer and on Tyro3 were 100 to 1000 nM and 10 to 100 nM, respectively.

On to `NC(=O)c1cc(Nc2ncc(C3CCN(CC4CCCC4)CC3)c(N[C@H]3CC[C@H](O)CC3)n2)ccn1` [Compound 20], for which the IC50 is less than 10 nM on Mer (setting [1]) and 10 to 100 nM against Tyro3.

Regarding `COc1cc(Nc2ncc(C3CCNCC3)c(N[C@H]3CC[C@H](NC(C)=O)CC3)n2)ccn1` [Compound 21], the IC50 on Mer and at Tyro3 was 10 to 100 nM each time.

On to `COc1cc(Nc2ncc(C3CCN(C4CCCC4)CC3)c(N[C@H]3CC[C@H](NC(C)=O)CC3)n2)ccn1` [Compound 22], for which the IC50 on Mer fell in the range of 100 to 1000 nM; against Tyro3, 1000 to 30000 nM.

With `COc1cc(Nc2ncc(C3CCN(C4CCCC4)CC3)c(N[C@H]3CC[C@H](N)CC3)n2)ccn1` [Compound 23], the IC50 against Mer (setting [1]) is less than 10 nM; against Tyro3, 10 to 100 nM.

As for `COc1cc(Nc2ncc(C3CCN(C4CCCC4)CC3)c(N[C@H]3CC[C@H](N(C)C)CC3)n2)ccn1` [Compound 24], the IC50 against Mer was 10 to 100 nM; at Tyro3, 100 to 1000 nM.

With `COc1cc(Nc2ncc(C3CCN(C4CCCC4)CC3)c(N[C@H]3CC[C@H](O)CC3)n2)ccn1` [Compound 25], the values for the IC50 at Mer (setting [1]) and against Tyro3 were less than 10 nM and 10 to 100 nM, respectively.

On to `COc1cc(Nc2ncc(C3CCN(C(=O)C4CCCC4)CC3)c(N[C@H]3CC[C@H](O)CC3)n2)ccn1` [Compound 26, Cyclopentyl(4-(4-((trans-4-hydroxycyclohexyl)amino)-2-((2-methoxypyridin-4-yl)amino)pyrimidin-5-yl)piperidin-1-yl)methanone], for which the IC50 on Mer and at Tyro3 was 10 to 100 nM in each case.

With `O[C@H]1CC[C@H](Nc2nc(Nc3ccnc(Cl)c3)ncc2C2CCN(CC3COC3)CC2)CC1` [Compound 28], the IC50 against Mer and on Tyro3 was 10 to 100 nM throughout.

On to `CN1CCC(CN2CCC(c3cnc(Nc4ccnc(Cl)c4)nc3N[C@H]3CC[C@H](O)CC3)CC2)CC1` [Compound 29], for which the IC50 on Mer and at Tyro3 was 10 to 100 nM each time.

Take `O[C@H]1CC[C@H](Nc2nc(Nc3ccnc(Cl)c3)ncc2C2CCN(CC3CCC(F)(F)CC3)CC2)CC1` [Compound 30]: the IC50 against Mer (setting [1]) and against Tyro3 (setting [2]) was less than 10 nM in each case.

In the case of `Cc1cc(CN2CCC(c3cnc(Nc4ccnc(Cl)c4)nc3N[C@H]3CC[C@H](O)CC3)CC2)no1` [Compound 31], the IC50 against Mer (setting [1]) was less than 10 nM; against Tyro3, 10 to 100 nM.

Take `O[C@H]1CC[C@H](Nc2nc(Nc3ccnc(Cl)c3)ncc2C2CCN(Cc3ccccc3)CC2)CC1` [Compound 32]: the IC50 on Mer (setting [1]) was less than 10 nM; against Tyro3, 10 to 100 nM.

As to `O[C@H]1CC[C@H](Nc2nc(Nc3ccnc(Cl)c3)ncc2C2CCN(CC3CCC3)CC2)CC1` [Compound 33], the IC50 against Mer (setting [1]) and against Tyro3 (setting [2]) was less than 10 nM in each case.

On to `O[C@H]1CC[C@H](Nc2nc(Nc3ccnc(Cl)c3)ncc2C2CCN(CC3CCOCC3)CC2)CC1` [Compound 34], for which the figures for the IC50 against Mer (setting [1]) and against Tyro3 were less than 10 nM and 10 to 100 nM, respectively.

As to `O[C@H]1CC[C@H](Nc2nc(Nc3ccnc(F)c3)ncc2C2CCNCC2)CC1` [Compound 37], the IC50 against Mer (setting [1]) was less than 10 nM; on Tyro3, 10 to 100 nM.

With `O[C@H]1CC[C@H](Nc2nc(Nc3ccnc(C4CC4)c3)ncc2C2CCNCC2)CC1` [Compound 41], the IC50 against Mer and against Tyro3 was 10 to 100 nM throughout.

Consider `O[C@H]1CC[C@H](Nc2nc(Nc3ccnc(N4CCCC4)c3)ncc2C2CCNCC2)CC1` [Compound 43], for which the values for the IC50 at Mer and on Tyro3 were 100 to 1000 nM and 1000 to 30000 nM, respectively.

`CN1CCN(c2cc(Nc3ncc(C4CCNCC4)c(N[C@H]4CC[C@H](O)CC4)n3)ccn2)CC1` [Compound 44]: the figures for the IC50 on Mer and against Tyro3 were 10 to 100 nM and 100 to 1000 nM, respectively.

As for `O[C@H]1CC[C@H](Nc2nc(Nc3ccnc(N4CCCCC4)c3)ncc2C2CCNCC2)CC1` [Compound 45], the IC50 on Mer and against Tyro3 was 1000 to 30000 nM in each case.

Take `O[C@H]1CC[C@H](Nc2nc(Nc3ccnc(Cl)c3)ncc2C2CCN(CC3CC3)CC2)CC1` [Compound 46]: the IC50 against Mer (setting [1]) and on Tyro3 (setting [2]) was less than 10 nM throughout.

As to `O[C@H]1CC[C@H](Nc2nc(Nc3ccnc(Cl)c3)ncc2C2CCN(c3ccccc3)CC2)CC1` [Compound 47, trans-4-((2-((2-Chloropyridin-4-yl)amino)-5-(1-phenylpiperidin-4-yl)pyrimidin-4-yl)amino)cyclohexan-1-ol], the IC50 on Mer and against Tyro3 was 10 to 100 nM throughout.

Regarding `CC1(C)CC(N2CCC(c3cnc(Nc4ccnc(Cl)c4)nc3N[C@H]3CC[C@H](O)CC3)CC2)C1` [Compound 48], the IC50 against Mer (setting [1]) and at Tyro3 (setting [2]) was less than 10 nM throughout.

As to `O[C@H]1CC[C@H](Nc2nc(Nc3ccnc(Cl)c3)ncc2C2CCN(C3CC(C4CC4)C3)CC2)CC1` (stereo partly drawn) [Compound 49], the IC50 at Mer (setting [1]) and at Tyro3 (setting [2]) was less than 10 nM in each case.

With `N#Cc1cc(Nc2ncc(C3CCN(CC4CCCC4)CC3)c(N[C@H]3CC[C@H](O)CC3)n2)ccn1` [Compound 55], the IC50 on Mer (setting [1]) is less than 10 nM; on Tyro3 it was 10 to 100 nM.

Turning to `N#Cc1cc(Nc2ncc(C3CCN(CC4CCC(F)(F)CC4)CC3)c(N[C@H]3CC[C@H](O)CC3)n2)ccn1` [Compound 56], the results for the IC50 at Mer (setting [1]) and at Tyro3 were less than 10 nM and 10 to 100 nM, respectively.
